The record followed here is US4460765A, “Enzyme inhibitor produced by cultivation of streptomyces microorganisms” (Sankyo Company Limited, priority 1979, dated 1984).

Data set [1] deals with low Km cAMP PDE, rat aorta. In words: cAMP PDE inhibition, low Km enzyme from rat aorta. The data set is classed as biochemical. Conditions: cAMP concentration 0.14 μM, read-out: 50% inhibitory value (I50). As for the experimental part: (§1) The inhibitory activity of the compounds of the invention (or of compositions, e.g. culture broths, containing them) may be assayed by the method of Pichard and Thun [Journal of Biological Chemistry, 251, 5726-5737 (1976)], using a crude enzyme solution derived from rat brains as the cAMP PDE. In this method, ^14 C-labelled cAMP is used as the substrate and is reacted at 30° C. for 20 minutes with 2-5 μl of the compound or composition under test, 20 μl of a snake venom and 40 μl of the crude enzyme solution in a 0.2M tris-HCl buffer (pH 8.0). The tris-HCl buffer is a mixture of tris(hydroxymethyl)aminomethane and hydrochloric acid. After completion of the reaction, the reaction mixture is treated with an Amberlite (Trade Mark) IRP-58 resin. From the residual radioactivity of the adenosine in the product, the inhibitory activity of the compound or composition against the cAMP PDE can be calculated as a percentage.
(§2) The inhibitory activity of griseolic acid against cAMP PDE in terms of its 50% inhibitory value (I50) are shown in Table 5 against cAMP PDE from a variety of sources having either a high or a low Michaelis constant (Km). The results are reported as μmoles (μM).

In data set [2] the target is T1, low Km cAMP PDE, rat platelets (Rattus norvegicus, UniProt Q62865).
T1 construct: from tissue; host or cells: rat platelets
T1 sequence (Q62865 1-1141): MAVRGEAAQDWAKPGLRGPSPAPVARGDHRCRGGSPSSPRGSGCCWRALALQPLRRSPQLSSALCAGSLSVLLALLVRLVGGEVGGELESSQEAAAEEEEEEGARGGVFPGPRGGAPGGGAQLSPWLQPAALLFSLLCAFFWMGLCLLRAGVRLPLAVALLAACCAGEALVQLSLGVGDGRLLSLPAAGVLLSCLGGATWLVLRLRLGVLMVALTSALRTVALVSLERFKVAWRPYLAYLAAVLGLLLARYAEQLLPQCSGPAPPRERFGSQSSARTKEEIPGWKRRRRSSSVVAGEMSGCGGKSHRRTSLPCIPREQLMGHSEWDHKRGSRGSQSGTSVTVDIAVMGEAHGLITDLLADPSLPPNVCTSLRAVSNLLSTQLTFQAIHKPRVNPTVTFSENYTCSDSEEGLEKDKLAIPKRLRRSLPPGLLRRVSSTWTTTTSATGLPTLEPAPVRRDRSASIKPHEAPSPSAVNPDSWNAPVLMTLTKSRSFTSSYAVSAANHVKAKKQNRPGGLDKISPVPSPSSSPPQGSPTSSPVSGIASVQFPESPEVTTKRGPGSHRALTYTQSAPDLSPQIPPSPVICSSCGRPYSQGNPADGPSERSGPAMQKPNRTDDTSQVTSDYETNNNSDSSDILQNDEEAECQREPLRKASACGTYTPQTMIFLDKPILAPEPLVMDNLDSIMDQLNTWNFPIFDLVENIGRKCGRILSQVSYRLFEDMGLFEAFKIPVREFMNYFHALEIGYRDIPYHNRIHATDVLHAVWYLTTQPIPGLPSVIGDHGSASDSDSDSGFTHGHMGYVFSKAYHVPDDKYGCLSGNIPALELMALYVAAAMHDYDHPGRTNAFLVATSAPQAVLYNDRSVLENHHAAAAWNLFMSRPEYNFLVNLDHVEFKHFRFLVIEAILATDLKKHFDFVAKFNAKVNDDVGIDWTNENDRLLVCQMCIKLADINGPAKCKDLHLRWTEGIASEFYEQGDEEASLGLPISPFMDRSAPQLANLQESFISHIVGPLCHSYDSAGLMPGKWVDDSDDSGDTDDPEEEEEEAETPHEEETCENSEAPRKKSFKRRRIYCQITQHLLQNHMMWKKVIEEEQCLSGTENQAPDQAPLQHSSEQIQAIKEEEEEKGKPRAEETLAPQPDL
In words: cAMP PDE inhibition, low Km enzyme from rat platelets. The conditions noted are these: cAMP concentration 0.14 μM, read-out: 50% inhibitory value (I50). The data set is classed as biochemical. Here is the method:
as §1, §2

Data set [3] deals with high Km cAMP PDE, rat aorta. Briefly: cAMP PDE inhibition, high Km enzyme from rat aorta. The conditions noted are these: cAMP concentration 100 μM, read-out: 50% inhibitory value (I50). In kind it is biochemical. Here is the method:
as §1, §2

For data set [4], the system named is low Km cAMP PDE, rat brain. Briefly: cAMP PDE inhibition, low Km enzyme from rat brain. Conditions: cAMP concentration 0.14 μM; for IC50: read-out: 50% inhibitory value (I50). In kind it is biochemical. As for the experimental part: as §1, §2
Data set [5] relates to high Km cAMP PDE, rat platelets. In words: cAMP PDE inhibition, high Km enzyme from rat platelets. The conditions noted are these: cAMP concentration 100 μM, read-out: 50% inhibitory value (I50). In kind it is biochemical. Here is the method:
as §1, §2

Data set [6] has as its target high Km cAMP PDE, rat kidney. In words: cAMP PDE inhibition, high Km enzyme from rat kidney. In kind it is biochemical. The conditions noted are these: cAMP concentration 100 μM, read-out: 50% inhibitory value (I50). As for the experimental part: as §1, §2
In data set [7] the target is low Km cAMP PDE, rat heart. Briefly: cAMP PDE inhibition, low Km enzyme from rat heart. The conditions noted are these: cAMP concentration 0.14 μM, read-out: 50% inhibitory value (I50). In kind it is biochemical. As for the experimental part: as §1, §2
In data set [8] the target is high Km cAMP PDE, rat heart. In words: cAMP PDE inhibition, high Km enzyme from rat heart. The data set is classed as biochemical. The conditions noted are these: cAMP concentration 100 μM, read-out: 50% inhibitory value (I50). As for the experimental part: as §1, §2
The target of data set [9] is high Km cAMP PDE, rat brain. Briefly: cAMP PDE inhibition, high Km enzyme from rat brain. In kind it is biochemical. The conditions noted are these: cAMP concentration 100 μM, read-out: 50% inhibitory value (I50). As for the experimental part:
as §1, §2

Data set [10] in a line: water solubility (qualitative). In kind it is physicochemical.
Data set [11] deals with low Km cAMP PDE, rat kidney. In words: cAMP PDE inhibition, low Km enzyme from rat kidney. Conditions: cAMP concentration 0.14 μM, read-out: 50% inhibitory value (I50). In kind it is biochemical. As for the experimental part:
as §1, §2

The test system of another data set is Hela S-3 strain cells. In words: basic tests on cytotoxicity. The data set is classed as cell-based, mouse. Conditions: even at concentrations of 100 μg/ml.

In the case of `Nc1ncnc2c1ncn2C1OC2=C(C(=O)O)C(C(O)C(=O)O)OC2C1O` (centres unmarked) [griseolic acid], the IC50 in [1] came to 31 nM; in data set [2], 41 nM; in data set [3] it was 510 nM; in data set [4] it was 160 nM; in data set [5], 8000 nM; in [6] it was 580 nM. For the same molecule, the IC50 in [7] worked out at 36 nM; in data set [8] it was 340 nM; in data set [9], 800 nM; in data set [11], 120 nM. Also, the “inhibitory activity relative to papaverine (times stronger)” value in [4] is on record as “about 20 times”. In addition, the water solubility result in data set [10] is “water-soluble”. Moreover, the “inhibition of cell growth” value in the data set with Hela S-3 strain cells is listed as “no inhibition of cell growth”.

`COc1ccc(Cc2nccc3cc(OC)c(OC)cc23)cc1OC` [Papaverine, reference compound]: the IC50 in data set [4] is 3500 nM.
